Measurements: paper PMC9025901, “New Genetic Bomb Trigger: Design, Synthesis, Molecular Dynamics Simulation, and Biological Evaluation of Novel BIBR1532-Related Analogs Targeting Telomerase against Non-Small Cell Lung Cancer” (Pharmaceuticals, 2022)

Experiments:
[1] = target: T1, telomerase (Homo sapiens, UniProt O14746); experiment: TRAP / RTQ-TRAP telomerase activity assay in A549 cell-free lysates; format: biochemical; conditions: telomerase inhibition, mean ± SEM;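 also: telomerase activity measured in cell-free extracts of human A549 epithelial lung carcinoma cells, tested across a range of inhibitor concentrations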
T1 construct: A549 cells (human epithelial cell lung carcinoma, ATCC, Manassas, VA) were lysed in; host or cells: A549 cell lysate (CHAPS extract, 5 µg total protein)
Protocol: In cell-free investigations, human A549 (epithelial cell lung carcinoma) lysates were utilized to evaluate telomerase with various inhibitor concentrations. […] The Telomeric Repeat Amplification Protocol (TRAP) [61] was used to evaluate the activity of telomerase, with some changes that we have previously described [62, 63]. A549 cells (human epithelial cell lung carcinoma, ATCC, Manassas, VA) were lysed in (10 mM) Tris-HCl, pH 7.5, (1 mM) EGTA, (1 mM) MgCl2, (5 mM) 2-mercaptoethanol, (0.1 mM) PMSF, (0.5%) CHAPS, and (10%) glycerol (Sigma-Aldrich, St. Louis, MO, USA) and centrifugation. The supernatants were kept at -80 °C. The BCA-1 Protein Assay Kit was used to assess the protein concentration in cell extracts (Sigma-Aldrich, St. Louis, MO, USA). […] To inactivate telomerase, the cells were elongated for 30 min at 37 °C and 10 min at 96 °C. Copy CX-primer was added to the elongation mixture along with 0.1 μL ([NT]) and 2.5 units Taq-polymerase, followed by the following PCR: 94 °C for 5 min; 30 cycles of 94 °C for 30 s, 50 °C for 30 s, and 72 °C for 40 s, and 72 °C for 5 min. […] The gels were stained with the SYBR Green I (Invitrogen, Grand Island, NY, USA), then photographed under the UV light in ChemiDocTM XRS imaging system and analyzed with GelAnalyzer 2010. Analysis was carried out using SPSS 25 software, a 2-way ANOVA, and a student's t-test (IBM SPSS Statistics, Armonk, NY, USA). The mean ± SEM is used to express the findings. The significance level was set at p ≤ 0.05. […] According to Sebaugh J.L., et al.'s guidelines, the values were assessed using the Prism 6 software (GraphPad, San Diego, CA, USA) [65].

[2] = design: method as in PMID 18256617, PMID 32733068, PMID 32125789; conditions: cited from earlier work
[3] = target: T2, telomerase inside living cancer cells NCI-H23 (Homo sapiens, UniProt O14746); experiment: Living-cell TRAP assay, NCI-H23; format: cell-based; conditions: percent of control cells, 10 µM, 48 h
T2 construct: host or cells: NCI-H23
Protocol: (§1) The Telomeric Repeat Amplification Protocol (TRAP) [61] was used to evaluate the activity of telomerase, with some changes that we have previously described [62, 63]. A549 cells (human epithelial cell lung carcinoma, ATCC, Manassas, VA) were lysed in (10 mM) Tris-HCl, pH 7.5, (1 mM) EGTA, (1 mM) MgCl2, (5 mM) 2-mercaptoethanol, (0.1 mM) PMSF, (0.5%) CHAPS, and (10%) glycerol (Sigma-Aldrich, St. Louis, MO, USA) and centrifugation. The supernatants were kept at -80 °C. The BCA-1 Protein Assay Kit was used to assess the protein concentration in cell extracts (Sigma-Aldrich, St. Louis, MO, USA). […] To inactivate telomerase, the cells were elongated for 30 min at 37 °C and 10 min at 96 °C. Copy CX-primer was added to the elongation mixture along with 0.1 μL ([NT]) and 2.5 units Taq-polymerase, followed by the following PCR: 94 °C for 5 min; 30 cycles of 94 °C for 30 s, 50 °C for 30 s, and 72 °C for 40 s, and 72 °C for 5 min. TBE buffer and (12%) nondenaturing PAAG electrophoresis were used to visualize the PCR product. 10 μL of each sample was placed in each well of gel comb. The gels were stained with the SYBR Green I (Invitrogen, Grand Island, NY, USA), then photographed under the UV light in ChemiDocTM XRS imaging system and analyzed with GelAnalyzer 2010.

[4] = target: T3, telomerase inside living cancer cells A549 (Homo sapiens, UniProt O14746); experiment: Living-cell TRAP assay, A549; format: cell-based; conditions: percent of control cells, 10 µM, 48 h
T3 construct: host or cells: A549
Protocol: as §1

[5] = target: T4, telomerase inside living cancer cells HCC44 (Homo sapiens, UniProt O14746); experiment: Living-cell TRAP assay, HCC44; format: cell-based; conditions: percent of control cells, 10 µM, 48 h
T4 construct: host or cells: HCC44
Protocol: as §1

[6] = tested on: advanced non-small cell lung cancer; design: method as in PMID 32733068, PMID 25467017; conditions: phase II clinical trials, patients with advanced non-small cell lung cancer; cited from earlier work

T1 sequence (O14746 whole entry): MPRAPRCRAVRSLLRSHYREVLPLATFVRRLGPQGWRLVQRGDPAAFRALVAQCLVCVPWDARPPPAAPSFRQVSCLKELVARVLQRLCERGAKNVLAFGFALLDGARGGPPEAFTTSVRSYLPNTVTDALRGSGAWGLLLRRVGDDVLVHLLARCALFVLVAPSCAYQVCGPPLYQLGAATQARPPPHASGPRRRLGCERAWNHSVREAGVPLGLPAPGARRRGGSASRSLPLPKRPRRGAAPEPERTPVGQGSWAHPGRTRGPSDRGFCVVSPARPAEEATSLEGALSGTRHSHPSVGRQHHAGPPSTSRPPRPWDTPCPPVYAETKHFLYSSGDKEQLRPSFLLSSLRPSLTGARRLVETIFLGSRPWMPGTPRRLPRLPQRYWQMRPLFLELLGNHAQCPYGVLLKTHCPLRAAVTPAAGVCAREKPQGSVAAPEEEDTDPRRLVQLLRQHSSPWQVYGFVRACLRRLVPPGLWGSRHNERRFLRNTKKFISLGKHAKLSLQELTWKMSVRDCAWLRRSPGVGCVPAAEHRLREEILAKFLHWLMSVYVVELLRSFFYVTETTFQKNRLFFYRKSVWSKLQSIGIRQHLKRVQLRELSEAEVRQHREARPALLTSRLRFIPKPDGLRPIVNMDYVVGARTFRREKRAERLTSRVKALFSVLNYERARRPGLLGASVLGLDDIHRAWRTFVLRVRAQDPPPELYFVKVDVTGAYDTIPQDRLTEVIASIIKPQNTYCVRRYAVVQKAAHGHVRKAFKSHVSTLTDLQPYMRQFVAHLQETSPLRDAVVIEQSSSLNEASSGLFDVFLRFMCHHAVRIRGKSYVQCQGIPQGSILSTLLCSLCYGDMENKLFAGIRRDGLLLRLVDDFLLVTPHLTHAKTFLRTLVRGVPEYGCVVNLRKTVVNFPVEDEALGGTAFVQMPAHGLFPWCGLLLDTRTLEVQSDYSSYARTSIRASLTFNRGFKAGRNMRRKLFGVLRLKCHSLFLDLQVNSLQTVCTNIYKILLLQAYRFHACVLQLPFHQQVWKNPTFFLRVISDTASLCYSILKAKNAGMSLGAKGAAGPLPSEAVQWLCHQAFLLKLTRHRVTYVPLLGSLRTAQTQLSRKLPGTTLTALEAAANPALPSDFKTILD
T1 sequence (O60832 whole entry partner): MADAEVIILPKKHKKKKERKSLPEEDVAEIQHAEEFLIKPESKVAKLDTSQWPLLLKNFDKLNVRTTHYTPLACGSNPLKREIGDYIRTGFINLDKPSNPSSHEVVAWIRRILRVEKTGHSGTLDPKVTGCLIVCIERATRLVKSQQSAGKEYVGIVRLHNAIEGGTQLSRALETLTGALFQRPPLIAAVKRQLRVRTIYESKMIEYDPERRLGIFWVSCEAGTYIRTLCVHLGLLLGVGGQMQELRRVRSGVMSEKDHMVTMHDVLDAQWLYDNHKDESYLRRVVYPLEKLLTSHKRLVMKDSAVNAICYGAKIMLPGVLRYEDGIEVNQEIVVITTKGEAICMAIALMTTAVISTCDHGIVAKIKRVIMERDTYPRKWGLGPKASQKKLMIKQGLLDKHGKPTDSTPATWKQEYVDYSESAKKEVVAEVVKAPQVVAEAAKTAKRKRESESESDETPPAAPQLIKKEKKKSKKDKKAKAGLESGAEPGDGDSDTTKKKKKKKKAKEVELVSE
T1 sequence (Q9NX24 whole entry partner): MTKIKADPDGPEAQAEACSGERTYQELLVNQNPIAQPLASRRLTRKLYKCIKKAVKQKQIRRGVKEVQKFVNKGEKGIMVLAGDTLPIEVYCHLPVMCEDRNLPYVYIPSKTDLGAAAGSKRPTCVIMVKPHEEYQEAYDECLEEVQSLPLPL
T1 sequence (Q9NPE3 whole entry partner): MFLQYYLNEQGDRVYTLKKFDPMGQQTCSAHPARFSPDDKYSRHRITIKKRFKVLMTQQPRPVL
T1 sequence (Q9NY12 whole entry partner): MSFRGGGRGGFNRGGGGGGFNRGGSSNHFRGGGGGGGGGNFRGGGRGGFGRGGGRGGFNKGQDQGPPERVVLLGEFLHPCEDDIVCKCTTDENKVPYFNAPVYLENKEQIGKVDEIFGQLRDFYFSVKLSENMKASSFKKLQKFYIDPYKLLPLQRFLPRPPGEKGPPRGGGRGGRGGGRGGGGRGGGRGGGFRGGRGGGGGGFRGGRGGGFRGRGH
T1 sequence (Q9BUR4 whole entry partner): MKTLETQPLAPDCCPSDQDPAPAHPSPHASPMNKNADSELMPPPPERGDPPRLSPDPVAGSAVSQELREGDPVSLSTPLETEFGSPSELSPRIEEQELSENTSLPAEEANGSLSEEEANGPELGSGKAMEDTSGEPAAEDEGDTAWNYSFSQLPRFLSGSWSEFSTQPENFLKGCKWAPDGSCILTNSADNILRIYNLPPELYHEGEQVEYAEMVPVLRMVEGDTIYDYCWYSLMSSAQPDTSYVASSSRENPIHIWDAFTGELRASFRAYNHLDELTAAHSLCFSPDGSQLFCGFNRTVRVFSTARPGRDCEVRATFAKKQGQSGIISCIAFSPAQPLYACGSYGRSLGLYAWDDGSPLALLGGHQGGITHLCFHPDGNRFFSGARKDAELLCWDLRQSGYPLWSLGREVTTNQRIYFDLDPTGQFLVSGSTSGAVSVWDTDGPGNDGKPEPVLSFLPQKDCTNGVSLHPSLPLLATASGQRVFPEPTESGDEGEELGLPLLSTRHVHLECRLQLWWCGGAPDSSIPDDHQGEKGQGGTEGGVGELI
T3 sequence (O14746 whole entry): as the sequence (O14746 whole entry) above
T3 sequence (O60832 whole entry partner): as the sequence (O60832 whole entry partner) above
T3 sequence (Q9NX24 whole entry partner): as the sequence (Q9NX24 whole entry partner) above
T3 sequence (Q9NPE3 whole entry partner): as the sequence (Q9NPE3 whole entry partner) above
T3 sequence (Q9NY12 whole entry partner): as the sequence (Q9NY12 whole entry partner) above
T3 sequence (Q9BUR4 whole entry partner): as the sequence (Q9BUR4 whole entry partner) above
T2 sequence (O14746 whole entry): as the sequence (O14746 whole entry) above
T2 sequence (O60832 whole entry partner): as the sequence (O60832 whole entry partner) above
T2 sequence (Q9NX24 whole entry partner): as the sequence (Q9NX24 whole entry partner) above
T2 sequence (Q9NPE3 whole entry partner): as the sequence (Q9NPE3 whole entry partner) above
T2 sequence (Q9NY12 whole entry partner): as the sequence (Q9NY12 whole entry partner) above
T2 sequence (Q9BUR4 whole entry partner): as the sequence (Q9BUR4 whole entry partner) above
T4 sequence (O14746 whole entry): as the sequence (O14746 whole entry) above
T4 sequence (O60832 whole entry partner): as the sequence (O60832 whole entry partner) above
T4 sequence (Q9NX24 whole entry partner): as the sequence (Q9NX24 whole entry partner) above
T4 sequence (Q9NPE3 whole entry partner): as the sequence (Q9NPE3 whole entry partner) above
T4 sequence (Q9NY12 whole entry partner): as the sequence (Q9NY12 whole entry partner) above
T4 sequence (Q9BUR4 whole entry partner): as the sequence (Q9BUR4 whole entry partner) above

Molecule | IC90 [1] [µM] | cellular uptake [2] | pharmacokinetics [2] | IC50 [1] [µM] | % Telomerase Activity in Cancer Cells [3] [%] | % Telomerase Activity in Cancer Cells [4] [%] | % Telomerase Activity in Cancer Cells [5] [%] | melting point [°C] | overall survival [6]
C/C(=C\C(=O)Nc1ccccc1C(=O)O)c1ccc2ccccc2c1 [BIBR1532] | 5.6 ± 0.02 | low cellular uptake | poor pharmacokinetics |  |  |  |  |  | 
N#C/C(=C\c1c[nH]c2ccccc12)C(=O)Nc1sc2c(c1C#N)CCCC2 [Compound 39b, (2E)-2-Cyano-N-(3-cyano-4,5,6,7-tetrahydro-1-benzothiophen-2-yl)-3-(1H-indol-3-yl)prop-2-enamide] | 7.1 ± 0.3 |  |  | 2 ± 0.03 | 50.3 ± 5.1 | 41.5 ± 6.9 | 75.6 ± 7.9 | 284 to 286 | 
Imetelstat |  |  |  |  |  |  |  |  | no improvement in overall survival
